≈ marks a conversion by molar mass, not a printed value. Where two headings read alike, the source gives them in different places.
Legend:
HL-60 cells = assay: cells; conditions: Homo sapiens
Description: A given number of cells were cultivated in 96-well plates with serial dilutions of the drugs up to 100 ng/ml. Tubulysin A is used as a positive control, whereas methanol is used as a negative control. After 5 days of incubation the metabolic activities of the cells were measured using MTT-assay as described under the methods section.
The effect of pre-tubulysin 816 and 827 was tested with regard to the growth of other cell lines, including the mouse connective tissues fibroblast L929, the human lung carcinoma cell line A549, the human colon adenocarcinoma cell line SW-480, and the human histiocytic lymphoma cell line U937, in addition to the human myeloid leukemia cell line HL-60.

L929 = assay: Anti-proliferation MTT assay (Example 2, Table 1); assay type: cell-based; conditions: L929 mouse connective tissue fibroblast
A549 = assay: Anti-proliferation MTT assay (Example 2, Table 1); assay type: cell-based; conditions: A549 human lung carcinoma
U937 = assay: Anti-proliferation MTT assay (Example 2, Table 1); assay type: cell-based; conditions: U-937; U937 human histiocytic lymphoma
[1] = test system: U-2 OS human osteosarcoma cells; assay: cells; assay type: cell-based; conditions: Homo sapiens, U2OS, average of two measurements, read-out: IC50
Description: Cytotoxicity testing of pretubulysin (AU827), N-desmethyl-pretubulysin (AU816) and Tubulysin A and D was performed as follows: Cells were seeded at 6×10^3 cells per well of 96-well plates in 180 μl complete medium and directly treated with varying concentrations of (pre-)tubulysins diluted in methanol. Each compound was tested in duplicate as well as the internal methanol control. After 5 d incubation, 20 μl of 5 mg/ml MTT (Thiazolyl blue tetrazolium bromide) in PBS was added per well and it was further incubated for 2 h at 37° C. The medium was then discarded and cells were washed with 100 μl PBS before adding 100 μl 2-propanol/10 N HCl (250:1) in order to dissolve formazan granules.
The absorbance at 570 nm was measured using a microplate reader (EL808, Bio-Tek Instruments Inc.), and cell viability was expressed as percentage relative to the respective methanol control. IC50 values were obtained by plotting relative growth inhibition in % against the compound concentration on a logarithmic scale. After sigmoidal curve fitting IC50 values can be determined. The IC50[per ml] are shown in the following table (values represent the average of two measurements):
Similarly cytotoxicity testing of Pretubulysin-related compounds in U-2 OS human osteosarcoma cells was performed and was further compared with AU 339 and AU 954, compounds mentioned in WO2008/106080 and WO2004/046170. The IC50 values are shown in the following table (values represent the average of two measurements): […]

PtK2 cells = assay type: cell-based; conditions: for concentration at which effects on microtubules and spindle morphologies appear / concentration for complete de-polymerization (disappearance) of interphase microtubules: 24 hours incubation
Description: Cell staining: Ptk2 cells were seeded on round glass coverslips (13 mm in diameter) in 4-well plates. Cells were incubated with the drugs to the given times as indicated for each experiment. For staining the microtubules and the nuclei, cells were firstly fixed with cold (−20° C.) acetone/methanol (1:1) for 10 min. For labelling the microtubules, cells were incubated with a primary monoclonal antibody against α-tubulin (1:500 Sigam) for 45 min at 37° C., followed by a secondary anti-mouse IgG antibody conjugated with Alexa488 (1:2000; Molecular probes) under the same incubations conditions. The nuclei were stained with DAPI (1 μg/ml in PBS). The cells were washed with phosphate buffer saline (PBS) between incubations. Coverslips were mounted by using Prolong Antifade (Molecular Probes) and imaged through a fluorescence microscope (LSM-Zeiss) with appropriate filter set.
Tubulysin A and D are known to induce de-polymerization of the interphase microtubules of mammalian cells and additionally induce a multi-polar spindle pool in mitotic cells (Khalil, M. et al., Chembiochem. 7, 678-683 (2006); Sasse, F., Menche, D. Nat. Chem. Biol. 3, 87-89 (2007)). Here the effect of pre-tubulysin treatment on the morphologies of microtubules and microtubules related structures in PtK2 cells was tested. PtK2 cells were seeded onto glass cover clips in 4 well plates and cultivated for 24 or 48 hours under growth conditions. The cells were then treated with different concentrations of tubulysin A, tubulysin D, pre-tubulysin-816 or pre-tubulysin-827. The control cells were treated only with equivalent amount of methanol (solvent). The cells were thin incubated for further 24 hours before they were fixed as described under the methods section. Fixed cells were then washed with PBS and finally labeled with anti-α-tubulin primary antibodies followed by anti-mouse-alexa-488 secondary antibodies to visualize the microtubules. The nuclei were stained with DAPI.

[2] = biological target: T1, purified microtubules protein isolated from porcine brain (Sus scrofa, UniProt P02550+P02554); assay: Turbidometric microtubules protein polymerization assay; assay type: biochemical; conditions: 10 μM microtubules protein, 10 min, 37° C.
T1 construct: Microtubules proteins were purified from porcine brain; from tissue; host or cells: porcine brain
Description: (§1) Tubulin purification: Microtubules proteins were purified from porcine brain by using standard procedures that includes three cycles of temperature-dependent polymerization and de-polymerization, as described elsewhere.
(§2) Polymerisation assay: Tubulin polymerisation was monitored by using turbidometry assay (lit). Samples (200 μl, 10 μM tubulin) in PEM polymerisation buffer (0.1 M PIPES, pH 6.6, 1 mM EGTA, 1 mM MgSO4, and 1 mM GTP), were rapidly warmed to 37° C. in a water-jacketed cuvette holder of a diode array photometer (Beckman spectrophotometer DU 7500). Absorbance at 350 nm where monitored in the absence and the presence of the drugs.
10 μM of purified microtubles protein were mixed on ice with 0, 1.7, 3.2, and 6.7 μM pre-tubulysin-816. Microtubules protein polymerization was then monitored for 10 min at 350 nm and 37° C. […] 1.7 μM of the drug was able to inhibit the polymerization of the protein by approximately 20%. Increase the concentration of the drug to 6.7 μM induced an inhibition of the polymerization to 60%.
Therefore, we were interested to test its activity on the polymerization of microtubules in vitro. We first studied its polymerization inhibition potential on microtubules polymerization. 10 μM of purified microtubules protein were mixed on ice with 0, 1, 1.7 and 3.4 μM pre-tubulysin-827 on ice. Microtubules protein polymerization was then monitored for 10 min at 350 nm and 37° C.

[3] = biological target: T2, preassembled microtubules (Sus scrofa, UniProt P02550+P02554); assay: De-polymerization of preassembled microtubules (turbidometry); assay type: biochemical, porcine; conditions: drug added after about 5 min polymerization at 37° C., monitored 10 min at 350 nm
T2 construct: Microtubules proteins were purified from porcine brain; from tissue; host or cells: porcine brain
Description: as §1, §2
In order to examine the action of the drug on preassembled microtubules, microtubules proteins were firstly polymerized at 37° C. for approximately 5 min. Then the drug was added, and the stability of the microtubules was measured for further 10 min at 350 nm.

[4] = test system: L929, A549, SW-480, U937 and HL-60 cell lines; assay: Anti-proliferation MTT assay, comparison over the tested cell lines; assay type: cell-based
[5] = comparison with prior art compounds

T1 sequence (P02554 whole entry): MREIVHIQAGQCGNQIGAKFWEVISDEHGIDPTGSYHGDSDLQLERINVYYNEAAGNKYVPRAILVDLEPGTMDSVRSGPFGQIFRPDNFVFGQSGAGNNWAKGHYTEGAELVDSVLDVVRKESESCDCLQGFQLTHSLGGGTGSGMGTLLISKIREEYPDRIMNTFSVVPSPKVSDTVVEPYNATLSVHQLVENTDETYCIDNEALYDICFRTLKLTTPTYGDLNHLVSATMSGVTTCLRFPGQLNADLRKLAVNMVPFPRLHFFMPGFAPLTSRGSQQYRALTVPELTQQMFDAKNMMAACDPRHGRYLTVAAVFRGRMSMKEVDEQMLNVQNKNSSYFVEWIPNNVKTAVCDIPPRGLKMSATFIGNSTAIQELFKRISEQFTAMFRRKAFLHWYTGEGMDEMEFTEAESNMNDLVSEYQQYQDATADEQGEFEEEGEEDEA
T1 sequence (P02550 whole entry): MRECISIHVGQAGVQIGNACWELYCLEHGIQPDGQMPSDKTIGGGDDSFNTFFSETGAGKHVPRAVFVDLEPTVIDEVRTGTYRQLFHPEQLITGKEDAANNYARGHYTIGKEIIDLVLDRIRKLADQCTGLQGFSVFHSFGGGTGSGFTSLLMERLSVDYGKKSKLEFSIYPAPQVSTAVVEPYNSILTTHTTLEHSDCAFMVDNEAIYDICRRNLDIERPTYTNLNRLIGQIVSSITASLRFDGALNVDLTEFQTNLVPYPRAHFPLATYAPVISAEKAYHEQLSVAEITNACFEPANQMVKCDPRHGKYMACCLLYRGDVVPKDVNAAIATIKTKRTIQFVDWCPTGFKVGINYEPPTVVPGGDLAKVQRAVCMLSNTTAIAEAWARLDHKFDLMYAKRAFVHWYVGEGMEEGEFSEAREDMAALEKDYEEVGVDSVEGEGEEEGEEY
T2 sequence (P02554 whole entry): as the sequence (P02554 whole entry) above
T2 sequence (P02550 whole entry): as the sequence (P02550 whole entry) above

Structure (SMILES): CC[C@H](C)[C@H](NC(=O)[C@H]1CCCCN1C)C(=O)N(C)[C@H](CCc1nc(C(=O)N[C@@H](Cc2ccccc2)C[C@H](C)C(=O)O)cs1)C(C)C [pre-tubulysin-827, pretubulysin]
- IC50 (HL-60 cells; HL-60, 120 h): 0.017 ng/mL (≈ 0.0254 nM)
- IC50 (HL-60 cells; HL-60, read-out: IC50 value): 0.017 ng/mL (≈ 0.0254 nM)
- IC50 (L929): 4.1 ng/mL (≈ 6.12 nM)
- IC50 (A549): 9 ng/mL (≈ 13.4 nM)
- IC50 (U937): 0.09 ng/mL (≈ 0.134 nM)
- IC50 [1]: 0.56 ng/mL (≈ 0.836 nM)
- IC50 [1, 5]: 0.56 ng/mL (≈ 0.836 nM)
- concentration at which effects on microtubules and spindle morphologies appear (PtK2 cells): 50 ng/ml
- concentration for complete de-polymerization (disappearance) of interphase microtubules (PtK2 cells): ≥ 1 µg/mL
- concentration for complete de-polymerization (disappearance) of interphase microtubules (PtK2 cells; listed as Pre-tubulysin-827): 1 µg/mL
- inhibition at 1 µM ([2]; 1 μM drug): ~45%
- inhibition at 3.4 µM ([2]; 3.4 μM drug): > 85%
- de-polymerization of preassembled microtubules [3]: induced de-polymerization of microtubules at substoichiometric concentrations
- potency/toxicity of pre-tubulysin-827 relative to pre-tubulysin-816 [4]: 5-10 folds

Structure (SMILES): CC[C@H](C)[C@H](NC(=O)[C@H]1CCCCN1C)C(=O)N(C)[C@H](CCc1nc(C(=O)N[C@H](CCC(=O)O)Cc2ccccc2)cs1)C(C)C [pre-tubulysin-816, N-desmethyl-pretubulysin]
- IC50 (HL-60 cells; HL-60, 120 h): 0.15 ng/mL (≈ 0.229 nM)
- IC50 (HL-60 cells; HL-60, read-out: IC50 value): 0.15 ng/mL (≈ 0.229 nM)
- IC50 (L929): 37 ng/mL (≈ 56.4 nM)
- IC50 (A549): 95 ng/mL (≈ 145 nM)
- IC50 (U937): 0.4 ng/mL (≈ 0.61 nM)
- IC50 [1]: 3.23 ng/mL (≈ 4.92 nM)
- IC50 [1, 5]: 3.16 ng/mL (≈ 4.82 nM)
- concentration at which effects on microtubules and spindle morphologies appear (PtK2 cells): ≥ 500 ng/ml
- concentration for complete de-polymerization (disappearance) of interphase microtubules (PtK2 cells): around 5 μg/ml
- concentration for complete de-polymerization (disappearance) of interphase microtubules (PtK2 cells; listed as Pre-tubulysin-816): 5 µg/mL
- effect on the interphase microtubules (PtK2 cells; concentrations up to 250 ng/ml, 24 h): did not show any clear effect
- inhibition at 1.7 µM ([2]; 1.7 μM drug): ~20%
- inhibition at 6.7 µM ([2]; 6.7 μM drug, printed as inhibition 'to 60%'): 60%

Source: patent publication US8791098B2 (priority 2008, dated 2014)
